According to the kinase profiling compilation of Christmann-Franck et al. (2016):
Several values for one entry are separate records, joined by “and”; a condition that tells them apart may be missing. Identical values can stand only once.

Experiments:
Test in all cases: radiometric filter-binding kinase assay
AURKA (human) = AURKA (human) (UniProt O14965); details: compound 100.0 µM; ATP 5 µM
BTK (human) = BTK (human) (UniProt Q06187); details: compound 100.0 µM; ATP 50 µM
CHEK1 (human) = CHEK1 (human) (UniProt O14757); details: compound 100.0 µM; ATP 20 µM
CLK2 (human) = CLK2 (human) (UniProt P49760); details: compound 100.0 µM; ATP 5 µM
EEF2K (human) = EEF2K (human) (UniProt O00418); details: compound 100.0 µM; ATP 5 µM
EPHB4 (human) = EPHB4 (human) (UniProt P54760); details: compound 100.0 µM; ATP 5 µM
GSK3B (human) = GSK3B (human) (UniProt P49841); details: compound 100.0 µM; ATP 5 µM
HIPK2 (human) = HIPK2 (human) (UniProt Q9H2X6); details: compound 100.0 µM; ATP 5 µM
HIPK3 (human) = HIPK3 (human) (UniProt Q9H422); details: compound 100.0 µM; ATP 20 µM
IGF1R (human) = IGF1R (human) (UniProt P08069); details: compound 100.0 µM; ATP 5 µM
IKBKB (human) = IKBKB (human) (UniProt O14920); details: compound 100.0 µM; ATP 5 µM
INSR (human) = INSR (human) (UniProt P06213); details: compound 100.0 µM; ATP 20 µM
INSRR (human) = INSRR (human) (UniProt P14616); details: compound 100.0 µM; ATP 5 µM
IRAK4 (human) = IRAK4 (human) (UniProt Q9NWZ3); details: compound 100.0 µM; ATP 20 µM
JAK2 JH1 JH2 (human) = JAK2 JH1 JH2 (human) (UniProt O60674); details: compound 100.0 µM; ATP 5 µM
MAP2K6 (human) = MAP2K6 (human) (UniProt P52564); details: compound 100.0 µM; ATP 50 µM
MAP3K1 (human) = MAP3K1 (human) (UniProt Q13233); details: compound 100.0 µM; ATP 50 µM
MAP3K11 (human) = MAP3K11 (human) (UniProt Q16584); details: compound 100.0 µM; ATP 20 µM
MAP3K7 TAB1 (human) = MAP3K7 TAB1 (human) (UniProt Q15750+O43318); details: compound 100.0 µM; ATP 5 µM
MAPK10 (human) = MAPK10 (human) (UniProt P53779); details: compound 100.0 µM; ATP 20 µM
MAPK12 (human) = MAPK12 (human) (UniProt P53778); details: compound 100.0 µM; ATP 5 µM
MAPK15 (human) = MAPK15 (human) (UniProt Q8TD08); details: compound 100.0 µM; ATP 5 µM
MAPK3 (human) = MAPK3 (human) (UniProt P27361); details: compound 100.0 µM; ATP 5 µM
MELK (human) = MELK (human) (UniProt Q14680); details: compound 100.0 µM; ATP 50 µM
MINK1 (human) = MINK1 (human) (UniProt Q8N4C8); details: compound 100.0 µM; ATP 50 µM
NEK6 (human) = NEK6 (human) (UniProt Q9HC98); details: compound 100.0 µM; ATP 50 µM
NUAK1 (human) = NUAK1 (human) (UniProt O60285); details: compound 100.0 µM; ATP 20 µM
PAK6 (human) = PAK6 (human) (UniProt Q9NQU5); details: compound 100.0 µM; ATP 20 µM
PDPK1 (human) = PDPK1 (human) (UniProt O15530); details: compound 100.0 µM
PLK1 (human) = PLK1 (human) (UniProt P53350); details: compound 100.0 µM; ATP 5 µM
[1] = biological target: PRKAA1 PRKAB2 PRKAG1 (human) (UniProt O43741+Q13131+P54619); details: compound 100.0 µM; ATP 20 µM
PRKACA (human) = PRKACA (human) (UniProt P17612); details: compound 100.0 µM; ATP 20 µM
PRKCA (human) = PRKCA (human) (UniProt P17252); details: compound 100.0 µM; ATP 20 µM
RIPK2 (human) = RIPK2 (human) (UniProt O43353); details: compound 100.0 µM; ATP 20 µM
[2] = tested on: RPS6KB1 (human), P23443 [T412E]; details: compound 100.0 µM; ATP 20 µM
[3] = tested on: SGK1 (human), O00141 [S422D]; details: compound 100.0 µM; ATP 20 µM
[4] = biological target: STK11 CAB39 STRADA (human) (UniProt Q9Y376+Q7RTN6+Q15831); details: compound 100.0 µM; ATP 20 µM
STK16 (human) = STK16 (human) (UniProt O75716); details: compound 100.0 µM; ATP 50 µM
YES1 (human) = YES1 (human) (UniProt P07947); details: compound 100.0 µM; ATP 20 µM
Sequence of YES1 (human) (P07947 whole entry, looked up): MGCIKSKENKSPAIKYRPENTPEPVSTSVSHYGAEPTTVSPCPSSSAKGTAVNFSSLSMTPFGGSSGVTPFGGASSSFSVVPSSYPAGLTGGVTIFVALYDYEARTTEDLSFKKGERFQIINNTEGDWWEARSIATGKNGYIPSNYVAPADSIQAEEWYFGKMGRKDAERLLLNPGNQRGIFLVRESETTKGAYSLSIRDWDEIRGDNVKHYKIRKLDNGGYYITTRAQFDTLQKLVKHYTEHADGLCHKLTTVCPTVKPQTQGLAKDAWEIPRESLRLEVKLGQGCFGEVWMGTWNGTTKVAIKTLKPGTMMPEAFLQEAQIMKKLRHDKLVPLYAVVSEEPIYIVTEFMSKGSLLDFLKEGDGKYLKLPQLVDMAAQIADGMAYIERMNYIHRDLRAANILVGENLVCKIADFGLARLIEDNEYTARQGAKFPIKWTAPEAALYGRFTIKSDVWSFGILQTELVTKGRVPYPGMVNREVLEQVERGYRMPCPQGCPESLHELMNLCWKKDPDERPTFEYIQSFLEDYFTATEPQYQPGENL

Sequence of STK11 CAB39 STRADA (human) (Q15831 whole entry, looked up): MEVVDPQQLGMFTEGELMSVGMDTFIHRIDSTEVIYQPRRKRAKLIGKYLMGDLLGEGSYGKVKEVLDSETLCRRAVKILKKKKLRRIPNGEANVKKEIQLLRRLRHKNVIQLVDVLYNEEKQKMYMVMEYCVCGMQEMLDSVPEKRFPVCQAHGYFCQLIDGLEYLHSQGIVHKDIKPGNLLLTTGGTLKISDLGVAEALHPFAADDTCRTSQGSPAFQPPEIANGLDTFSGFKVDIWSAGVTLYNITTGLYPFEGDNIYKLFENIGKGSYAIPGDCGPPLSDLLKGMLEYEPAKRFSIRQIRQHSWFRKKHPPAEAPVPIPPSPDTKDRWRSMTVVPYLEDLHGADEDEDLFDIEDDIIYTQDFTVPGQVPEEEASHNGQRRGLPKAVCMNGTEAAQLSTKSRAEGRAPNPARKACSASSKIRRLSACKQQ
Sequence of STK11 CAB39 STRADA (human) (Q7RTN6 whole entry, looked up): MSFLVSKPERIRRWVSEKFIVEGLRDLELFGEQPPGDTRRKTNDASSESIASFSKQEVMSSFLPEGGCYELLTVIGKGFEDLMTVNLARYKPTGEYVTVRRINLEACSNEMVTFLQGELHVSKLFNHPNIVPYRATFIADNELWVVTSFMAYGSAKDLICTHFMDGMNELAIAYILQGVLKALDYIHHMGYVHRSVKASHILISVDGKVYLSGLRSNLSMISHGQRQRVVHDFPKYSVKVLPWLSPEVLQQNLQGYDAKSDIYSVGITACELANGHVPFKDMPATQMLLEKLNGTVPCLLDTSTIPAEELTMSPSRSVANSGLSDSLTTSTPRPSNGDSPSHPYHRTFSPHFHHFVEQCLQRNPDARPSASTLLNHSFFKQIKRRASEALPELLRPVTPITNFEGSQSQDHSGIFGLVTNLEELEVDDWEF
Sequence of STK11 CAB39 STRADA (human) (Q9Y376 whole entry, looked up): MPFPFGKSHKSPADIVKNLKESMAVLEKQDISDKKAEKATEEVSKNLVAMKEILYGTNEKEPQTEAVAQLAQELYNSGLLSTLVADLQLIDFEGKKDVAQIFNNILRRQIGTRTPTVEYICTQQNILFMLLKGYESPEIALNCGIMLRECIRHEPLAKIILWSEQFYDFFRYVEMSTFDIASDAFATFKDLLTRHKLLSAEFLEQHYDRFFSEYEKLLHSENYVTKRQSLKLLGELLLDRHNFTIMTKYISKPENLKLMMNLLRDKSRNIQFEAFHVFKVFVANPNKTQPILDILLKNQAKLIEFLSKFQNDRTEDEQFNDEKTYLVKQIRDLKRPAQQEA
Sequence of INSR (human) (P06213 whole entry, looked up): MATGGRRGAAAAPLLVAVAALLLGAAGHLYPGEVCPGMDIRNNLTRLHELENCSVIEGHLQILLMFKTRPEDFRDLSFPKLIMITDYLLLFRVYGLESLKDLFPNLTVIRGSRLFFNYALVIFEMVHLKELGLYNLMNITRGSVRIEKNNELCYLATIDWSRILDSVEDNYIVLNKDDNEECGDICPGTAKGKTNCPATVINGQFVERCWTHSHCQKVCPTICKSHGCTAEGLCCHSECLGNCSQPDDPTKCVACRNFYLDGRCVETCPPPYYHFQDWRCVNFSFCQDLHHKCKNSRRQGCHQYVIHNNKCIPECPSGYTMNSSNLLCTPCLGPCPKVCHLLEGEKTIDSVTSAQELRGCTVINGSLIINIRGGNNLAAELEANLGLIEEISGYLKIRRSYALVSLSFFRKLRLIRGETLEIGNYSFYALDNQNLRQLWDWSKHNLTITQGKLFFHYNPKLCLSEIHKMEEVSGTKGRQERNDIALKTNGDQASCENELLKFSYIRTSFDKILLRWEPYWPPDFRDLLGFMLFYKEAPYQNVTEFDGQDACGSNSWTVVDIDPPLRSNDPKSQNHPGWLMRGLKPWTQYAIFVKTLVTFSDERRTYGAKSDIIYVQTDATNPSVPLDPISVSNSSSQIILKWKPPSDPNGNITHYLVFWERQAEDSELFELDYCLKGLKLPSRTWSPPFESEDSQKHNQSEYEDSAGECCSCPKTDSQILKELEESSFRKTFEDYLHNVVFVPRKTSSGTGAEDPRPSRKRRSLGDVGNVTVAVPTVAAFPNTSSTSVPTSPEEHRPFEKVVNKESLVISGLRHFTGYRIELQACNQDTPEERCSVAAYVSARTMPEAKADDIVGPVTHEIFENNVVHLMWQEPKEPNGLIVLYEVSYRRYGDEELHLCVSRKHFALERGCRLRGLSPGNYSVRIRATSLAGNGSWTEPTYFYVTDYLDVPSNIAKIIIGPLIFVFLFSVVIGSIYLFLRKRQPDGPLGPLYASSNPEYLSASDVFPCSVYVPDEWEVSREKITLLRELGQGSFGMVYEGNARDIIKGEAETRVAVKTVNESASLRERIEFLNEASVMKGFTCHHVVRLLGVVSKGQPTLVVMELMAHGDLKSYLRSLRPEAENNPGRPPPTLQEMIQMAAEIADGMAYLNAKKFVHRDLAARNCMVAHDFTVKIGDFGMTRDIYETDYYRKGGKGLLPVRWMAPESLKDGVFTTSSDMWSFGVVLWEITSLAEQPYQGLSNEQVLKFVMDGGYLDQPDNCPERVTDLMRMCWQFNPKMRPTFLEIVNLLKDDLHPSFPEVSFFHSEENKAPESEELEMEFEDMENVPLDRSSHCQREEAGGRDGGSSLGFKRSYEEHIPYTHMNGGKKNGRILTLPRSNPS
Sequence of CLK2 (human) (P49760 whole entry, looked up): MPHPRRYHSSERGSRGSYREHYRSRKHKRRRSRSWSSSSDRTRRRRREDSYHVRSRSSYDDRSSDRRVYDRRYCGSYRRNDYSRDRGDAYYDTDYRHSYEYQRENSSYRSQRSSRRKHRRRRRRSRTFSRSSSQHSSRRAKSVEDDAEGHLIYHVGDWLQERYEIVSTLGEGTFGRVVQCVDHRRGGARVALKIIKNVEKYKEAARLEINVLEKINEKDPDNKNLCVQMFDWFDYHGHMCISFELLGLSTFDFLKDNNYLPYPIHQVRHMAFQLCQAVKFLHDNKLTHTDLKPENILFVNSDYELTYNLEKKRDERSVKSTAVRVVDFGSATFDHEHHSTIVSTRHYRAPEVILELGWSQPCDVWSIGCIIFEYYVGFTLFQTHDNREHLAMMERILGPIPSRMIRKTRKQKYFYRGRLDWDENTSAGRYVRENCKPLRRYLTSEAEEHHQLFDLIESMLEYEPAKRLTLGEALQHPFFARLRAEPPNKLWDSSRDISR
Sequence of MAPK10 (human) (P53779 whole entry, looked up): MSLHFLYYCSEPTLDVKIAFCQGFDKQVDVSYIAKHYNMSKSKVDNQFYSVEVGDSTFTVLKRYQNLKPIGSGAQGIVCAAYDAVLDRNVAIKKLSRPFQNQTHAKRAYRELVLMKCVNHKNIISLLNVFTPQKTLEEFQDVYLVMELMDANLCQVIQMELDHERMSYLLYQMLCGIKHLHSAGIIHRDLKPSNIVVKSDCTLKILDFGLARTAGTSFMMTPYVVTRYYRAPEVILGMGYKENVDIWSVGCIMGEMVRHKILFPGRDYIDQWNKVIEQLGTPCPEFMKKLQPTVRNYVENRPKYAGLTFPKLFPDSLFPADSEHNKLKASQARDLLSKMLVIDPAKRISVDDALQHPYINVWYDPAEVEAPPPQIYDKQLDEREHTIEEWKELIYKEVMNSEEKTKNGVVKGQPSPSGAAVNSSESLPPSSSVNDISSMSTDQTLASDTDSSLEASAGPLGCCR
Sequence of AURKA (human) (O14965 whole entry, looked up): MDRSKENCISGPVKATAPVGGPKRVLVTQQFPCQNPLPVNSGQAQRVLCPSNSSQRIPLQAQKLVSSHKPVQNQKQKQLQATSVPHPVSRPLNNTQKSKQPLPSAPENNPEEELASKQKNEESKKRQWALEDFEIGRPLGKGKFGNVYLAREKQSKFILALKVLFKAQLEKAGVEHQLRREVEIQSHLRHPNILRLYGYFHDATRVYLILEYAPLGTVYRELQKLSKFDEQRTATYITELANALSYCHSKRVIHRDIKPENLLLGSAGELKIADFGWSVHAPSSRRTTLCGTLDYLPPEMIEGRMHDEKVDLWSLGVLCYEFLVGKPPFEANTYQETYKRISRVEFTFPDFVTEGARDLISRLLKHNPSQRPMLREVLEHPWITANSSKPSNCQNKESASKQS
Sequence of GSK3B (human) (P49841 whole entry, looked up): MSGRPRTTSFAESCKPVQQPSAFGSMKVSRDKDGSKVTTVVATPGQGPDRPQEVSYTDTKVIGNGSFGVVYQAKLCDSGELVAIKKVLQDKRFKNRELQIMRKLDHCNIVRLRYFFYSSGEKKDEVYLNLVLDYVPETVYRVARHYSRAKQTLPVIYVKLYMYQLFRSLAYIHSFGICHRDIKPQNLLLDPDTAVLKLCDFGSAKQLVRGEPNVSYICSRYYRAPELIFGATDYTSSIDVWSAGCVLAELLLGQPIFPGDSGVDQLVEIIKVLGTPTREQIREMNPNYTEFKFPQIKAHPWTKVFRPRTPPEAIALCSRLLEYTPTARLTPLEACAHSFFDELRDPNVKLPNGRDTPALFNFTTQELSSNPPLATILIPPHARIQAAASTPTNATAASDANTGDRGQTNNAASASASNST

Compound | inhibition (AURKA (human)) | inhibition (BTK (human)) | inhibition (CHEK1 (human)) | inhibition (CLK2 (human)) | inhibition (EEF2K (human)) | inhibition (EPHB4 (human)) | inhibition (GSK3B (human)) | inhibition (HIPK2 (human)) | inhibition (HIPK3 (human)) | inhibition (IGF1R (human)) | inhibition (IKBKB (human)) | inhibition (INSR (human)) | inhibition (INSRR (human)) | inhibition (IRAK4 (human)) | inhibition (JAK2 JH1 JH2 (human)) | inhibition (MAP2K6 (human)) | inhibition (MAP3K1 (human)) | inhibition (MAP3K11 (human)) | inhibition (MAP3K7 TAB1 (human)) | inhibition (MAPK10 (human)) | further results
O=C(Nc1cnc2[nH]cnn2c1=O)c1ccccc1 | 0% | 17% | 0% | 0% | 6% | 6% | 0% | 0% | 0% | 0% | 0% | 0% | 0% | 0% | 0% | 3% | 6% | 0% | 15% | 0% | inhibition (MAPK12 (human)): 0%; inhibition (MAPK15 (human)): 4%; inhibition (MAPK3 (human)): 13%; inhibition (MELK (human)): 0%; inhibition (MINK1 (human)): 0%; inhibition (NEK6 (human)): 0%; inhibition (NUAK1 (human)): 0%; inhibition (PAK6 (human)): 0%; inhibition (PDPK1 (human); ATP 20 µM): 1%; inhibition (PDPK1 (human); ATP 50 µM): 0%; inhibition (PLK1 (human)): 0%; inhibition [1]: 0%; inhibition (PRKACA (human)): 0%; inhibition (PRKCA (human)): 0%; inhibition (RIPK2 (human)): 0%; inhibition [2]: 0%; inhibition [3]: 0%; inhibition [4]: 0%; inhibition (STK16 (human)): 10%; inhibition (YES1 (human)): 0%
O=C(c1cccc(-c2cc3c(=O)[nH]cnc3s2)c1)N1CCOCC1 | 21% | 46% | 0% | 46% | 39% | 0% | 70% | 38% | 0% | 0% | 37% | 0% | 0% | 28% | 75% | 2% | 0% | 23% | 78% | 7% | inhibition (MAPK12 (human)): 0%; inhibition (MAPK15 (human)): 72%; inhibition (MAPK3 (human)): 19%; inhibition (MELK (human)): 25%; inhibition (MINK1 (human)): 40%; inhibition (NEK6 (human)): 44%; inhibition (NUAK1 (human)): 0%; inhibition (PAK6 (human)): 0%; inhibition (PDPK1 (human); ATP 20 µM): 16%; inhibition (PDPK1 (human); ATP 50 µM): 53%; inhibition (PLK1 (human)): 0%; inhibition [1]: 50%; inhibition (PRKACA (human)): 17% and 42%; inhibition (PRKCA (human)): 21%; inhibition (RIPK2 (human)): 12%; inhibition [2]: 34%; inhibition [3]: 14%; inhibition [4]: 0%; inhibition (STK16 (human)): 4%; inhibition (YES1 (human)): 0%
Nc1cnc2c(-c3c(F)cccc3F)cccn2c1=O | 89% | 67% | 0% | 91% | 16% | 39% | 51% | 18% | 23% | 85% | 66% | 88% | 51% | 31% | 89% | 10% | 21% | 63% | 80% | 33% | inhibition (MAPK12 (human)): 17%; inhibition (MAPK15 (human)): 36%; inhibition (MAPK3 (human)): 23%; inhibition (MELK (human)): 43%; inhibition (MINK1 (human)): 75%; inhibition (NEK6 (human)): 0%; inhibition (NUAK1 (human)): 76%; inhibition (PAK6 (human)): 10%; inhibition (PDPK1 (human); ATP 20 µM): 20%; inhibition (PDPK1 (human); ATP 50 µM): 57%; inhibition (PLK1 (human)): 0%; inhibition [1]: 40%; inhibition (PRKACA (human)): 8% and 12%; inhibition (PRKCA (human)): 36%; inhibition (RIPK2 (human)): 3%; inhibition [2]: 0%; inhibition [3]: 0%; inhibition [4]: 62%; inhibition (STK16 (human)): 3%; inhibition (YES1 (human)): 57%
O=C(Nc1cnc2[nH]ccn2c1=O)c1ccccc1 | 6% | 14% | 2% | 0% | 11% | 5% | 9% | 7% | 0% | 0% | 0% | 11% | 11% | 19% | 9% | 0% | 3% | 40% | 26% | 0% | inhibition (MAPK12 (human)): 0%; inhibition (MAPK15 (human)): 7%; inhibition (MAPK3 (human)): 10%; inhibition (MELK (human)): 2%; inhibition (MINK1 (human)): 25%; inhibition (NEK6 (human)): 15%; inhibition (NUAK1 (human)): 0%; inhibition (PAK6 (human)): 6%; inhibition (PDPK1 (human); ATP 20 µM): 14%; inhibition (PDPK1 (human); ATP 50 µM): 4%; inhibition (PLK1 (human)): 10%; inhibition [1]: 0%; inhibition (PRKACA (human)): 0% and 2%; inhibition (PRKCA (human)): 2%; inhibition (RIPK2 (human)): 16%; inhibition [2]: 4%; inhibition [3]: 1%; inhibition [4]: 0%; inhibition (STK16 (human)): 21%; inhibition (YES1 (human)): 11%
CC(=O)Nc1nc2cnc(-c3ccccc3)cn2n1 | 13% | 28% | 18% | 79% | 13% | 11% | 73% | 49% | 0% | 11% | 10% | 60% | 60% | 39% | 25% | 0% | 9% | 17% | 30% | 11% | inhibition (MAPK12 (human)): 24%; inhibition (MAPK15 (human)): 88%; inhibition (MAPK3 (human)): 13%; inhibition (MELK (human)): 17%; inhibition (MINK1 (human)): 58%; inhibition (NEK6 (human)): 21%; inhibition (NUAK1 (human)): 33%; inhibition (PAK6 (human)): 18%; inhibition (PDPK1 (human); ATP 20 µM): 15%; inhibition (PDPK1 (human); ATP 50 µM): 13%; inhibition (PLK1 (human)): 4%; inhibition [1]: 14%; inhibition (PRKACA (human)): 0%; inhibition (PRKCA (human)): 0%; inhibition (RIPK2 (human)): 29%; inhibition [2]: 5%; inhibition [3]: 16%; inhibition [4]: 0%; inhibition (STK16 (human)): 0%; inhibition (YES1 (human)): 35%
